Legend:
[1] = Skin irritativeness, SPI value (skin irritation value of epoxy); conditions: for Toxicity Skin Irritativeness (SPI · %): ingredient of the adhesive of Example 5, Table 1
[2] = Toxicity of adhesive ingredients, LD 50 (Table 1); format: in vivo; conditions: ingredient of the adhesive of Example 5, Table 1

hydrogenated bisphenol A type epoxy [alicyclic epoxy]
Toxicity Skin Irritativeness (SPI · %) [1]: 3 SPI · %
Toxicity LD 50 [2]: 3900 mg/kg

O=C1OC(=O)C2CC=CCC12 (stereo not shown) [alicyclic acid anhydride II, Tetrahydrophthalic anhydride]
Toxicity Skin Irritativeness (SPI · %) [1]: 3 SPI · %
skin irritativeness ([1]; result in words): low skin irritativeness
